From patent publication US11730712B2, “Functionalized long-chain hydrocarbon mono- and di-carboxylic acids and derivatives thereof, and their use for the prevention or treatment of disease” (ESPERVITA THERAPEUTICS, INC., priority 2021, dated 2023)

Test system: liver fibrosis gene panel (770 genes)
Assay: Nanostring nCounter Fibrosis panel gene expression in liver of DEN-injected mice
Format: in vivo, mouse
Experimental: Nanostring Analysis. RNA was extracted from paired liver and tumor tissue from vehicle, Compound I-1 (100 mg/kg) and Compound I-32 (100 mg/kg) treated mice using an RNeasy kit (Qiagen, Calif., USA) as per manufacturer's protocol. All RNA samples passed the BioAnalyzer quality control test. The expression of target genes in liver and tumor were analyzed using the nCounter Fibrosis and Cancer Panel (NanoString Technologies, Inc., WA, USA), respectively according to manufacturer's protocol at the McMaster Genomics Facility. Technical and biological normalization against global geometric mean was performed in nSolver 4.0 software (NanoString Technologies). Technical normalization was performed in the nSolver software (version 4.0.70) by normalizing sample target raw counts to the geometric mean of positive control spike-ins. Biological normalization was performed by normalizing sample target raw counts to the geometric mean of selected housekeeping genes (Ppia, Nubp1, Nol7, Armh3, Rplp0, Cnot10, Pgk1, and Acad9). Pathway scores were calculated as the first principal component of the normalized expression values for all genes in each pathway and samples were compiled according to experimental groups to determine average pathway scores. Statistical significance was calculated between experimental groups using multiple t-tests and p-values were corrected for multiple comparisons using Benjamin-Hochberg false discovery rate.
Molecular analysis. To identify the pathways modulated in the liver and tumor tissue, nanostring analysis of fibrosis and cancer, pathways, respectively were completed in an n=8 mice treated with vehicle or Compound I-32 or Compound I-1 at 100 mg/kg.

CC(C)(CCCCc1ccc(CCCCC(C)(C)C(=O)O)cc1)C(=O)O [Compound I-1, 6-[4-(5-carboxy-5-methylhexyl)-phenyl]-2,2-dimethylhexanoic acid]
number of genes downregulated (100 mg/kg, 4 weeks): 170 | number of genes upregulated (100 mg/kg, 4 weeks): 86 | number of genes with altered expression relative to vehicle controls (770 genes measured) (100 mg/kg, 4 weeks): 256 | Casp7 Log2FC (NM_00761-1, 100 mg/kg, vs vehicle): −0.522 | Adh1 Log2FC (NM_007409, 100 mg/kg, vs vehicle): 0.603 | Aldh3a2 Log2FC (NM_007437, 100 mg/kg, vs vehicle): 1.1 | Ap1s1 Log2FC (NM_007457, 100 mg/kg, vs vehicle): 0.242 | Apoa4 Log2FC (NM_007468, 100 mg/kg, vs vehicle): −4.07 | Ctnnb1 Log2FC (NM_007614, 100 mg/kg, vs vehicle): −0.17 | Cd36 Log2FC (NM_007643, 100 mg/kg, vs vehicle): 1.32 | Cdh2 Log2FC (NM_007664, 100 mg/kg, vs vehicle): −0.164 | Cebpa Log2FC (NM_007678, 100 mg/kg, vs vehicle): −0.363 | Cfi Log2FC (NM_007686, 100 mg/kg, vs vehicle): −0.56 | Chil1 Log2FC (NM_007695, 100 mg/kg, vs vehicle): 2.06 | Col1a1 Log2FC (NM_007742, 100 mg/kg, vs vehicle): −1.21 | Col1a2 Log2FC (NM_007743, 100 mg/kg, vs vehicle): −0.924 | Cox6a1 Log2FC (NM_007748, 100 mg/kg, vs vehicle): 0.432 | Cox7c Log2FC (NM_007749, 100 mg/kg, vs vehicle): 0.501 | Crp Log2FC (NM_007768, 100 mg/kg, vs vehicle): −0.931 | Cybb Log2FC (NM_007807, 100 mg/kg, vs vehicle): −0.522 | Cyp7a1 Log2FC (NM_007824, 100 mg/kg, vs vehicle): −1.07 | Eef2k Log2FC (NM_007908, 100 mg/kg, vs vehicle): 0.422 | Ephx2 Log2FC (NM_007940, 100 mg/kg, vs vehicle): 0.794 | F5 Log2FC (NM_007976, 100 mg/kg, vs vehicle): −0.363 | Fas Log2FC (NM_007987, 100 mg/kg, vs vehicle): 0.528 | Fasn Log2FC (NM_007988, 100 mg/kg, vs vehicle): 0.831 | Slc37a4 Log2FC (NM_008063, 100 mg/kg, vs vehicle): −1.17 | Gas1 Log2FC (NM_008086, 100 mg/kg, vs vehicle): −0.608 | Gpc4 Log2FC (NM_008150, 100 mg/kg, vs vehicle): −0.469 | Gpr65 Log2FC (NM_008152, 100 mg/kg, vs vehicle): −0.447 | Hadh Log2FC (NM_008212, 100 mg/kg, vs vehicle): 0.28 | Hmgcs2 Log2FC (NM_008256, 100 mg/kg, vs vehicle): 0.291 | Hsd11b1 Log2FC (NM_008288, 100 mg/kg, vs vehicle): −1.33 | Hsd17b4 Log2FC (NM_008292, 100 mg/kg, vs vehicle): 0.637 | Hsp90ab1 Log2FC (NM_008302, 100 mg/kg, vs vehicle): 0.407 | Irf8 Log2FC (NM_008320, 100 mg/kg, vs vehicle): −0.55 | ll10ra Log2FC (NM_008348, 100 mg/kg, vs vehicle): −0.737 | Irf1 Log2FC (NM_008390, 100 mg/kg, vs vehicle): −0.32 | Itch Log2FC (NM_008395, 100 mg/kg, vs vehicle): −0.277 | Lpl Log2FC (NM_008509, 100 mg/kg, vs vehicle): 1.98 | Lrp1 Log2FC (NM_008512, 100 mg/kg, vs vehicle): −0.339 | Cd180 Log2FC (NM_008533, 100 mg/kg, vs vehicle): −0.776 | Masp1 Log2FC (NM_008555, 100 mg/kg, vs vehicle): −0.24 | Anapc1 Log2FC (NM_008569, 100 mg/kg, vs vehicle): −0.378 | Mmp12 Log2FC (NM_008605, 100 mg/kg, vs vehicle): −1.53 | Mmp14 Log2FC (NM_008608, 100 mg/kg, vs vehicle): −0.522 | Ncf4 Log2FC (NM_008677, 100 mg/kg, vs vehicle): −0.746 | Nedd8 Log2FC (NM_008683, 100 mg/kg, vs vehicle): 0.139 | Nfkb1 Log2FC (NM_008689, 100 mg/kg, vs vehicle): −0.241 | Pcx Log2FC (NM_008797, 100 mg/kg, vs vehicle): −0.57 | Plcb3 Log2FC (NM_008874, 100 mg/kg, vs vehicle): −0.321 | Plg Log2FC (NM_008877, 100 mg/kg, vs vehicle): −0.393 | Ppm1a Log2FC (NM_008910, 100 mg/kg, vs vehicle): 0.148 | Map2k1 Log2FC (NM_008927, 100 mg/kg, vs vehicle): −0.145 | Psmc3 Log2FC (NM_008948, 100 mg/kg, vs vehicle): 0.145 | Rac1 Log2FC (NM_009007, 100 mg/kg, vs vehicle): −0.093 | Saa1/2 Log2FC (NM_009117, 100 mg/kg, vs vehicle): −3.03 | Scd1 Log2FC (NM_009127, 100 mg/kg, vs vehicle): 0.478 | Sem1 Log2FC (NM_009169, 100 mg/kg, vs vehicle): 0.385 | Spp1 Log2FC (NM_009263, 100 mg/kg, vs vehicle): −0.879 | Ssr4 Log2FC (NM_009279, 100 mg/kg, vs vehicle): −0.321 | Tgfbr1 Log2FC (NM_009370, 100 mg/kg, vs vehicle): −0.445 | Traf2 Log2FC (NM_009422, 100 mg/kg, vs vehicle): −0.247 | Tnfsf10 Log2FC (NM_009425, 100 mg/kg, vs vehicle): −0.823
